Experimental data as given in ChEMBL document CHEMBL4118202, “Chiral analogues of (+)-cyclazosin as potent α1B-adrenoceptor selective antagonist” (Bioorg Med Chem, 2018).
pKi: −log10 of the molar value.

How the values were obtained:
[1] = target: T1, Alpha-1A adrenergic receptor (Homo sapiens, UniProt P35348); assay: Binding affinity to alpha1A adrenergic receptor (unknown origin)
T1 sequence (P35348 whole entry): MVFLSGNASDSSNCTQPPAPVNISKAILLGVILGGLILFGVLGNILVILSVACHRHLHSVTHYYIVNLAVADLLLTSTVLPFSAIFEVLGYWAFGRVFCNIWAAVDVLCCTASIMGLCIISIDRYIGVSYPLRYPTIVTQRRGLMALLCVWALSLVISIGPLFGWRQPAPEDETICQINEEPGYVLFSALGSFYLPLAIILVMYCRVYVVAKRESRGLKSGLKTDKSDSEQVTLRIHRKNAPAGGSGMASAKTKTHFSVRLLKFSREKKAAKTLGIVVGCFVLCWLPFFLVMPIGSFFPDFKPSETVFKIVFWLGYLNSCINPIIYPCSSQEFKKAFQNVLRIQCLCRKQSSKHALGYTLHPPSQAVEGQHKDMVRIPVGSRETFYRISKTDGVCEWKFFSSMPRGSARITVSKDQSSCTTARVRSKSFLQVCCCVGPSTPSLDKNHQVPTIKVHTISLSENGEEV

Homo sapiens [2] = species: Homo sapiens; assay: Selectivity ratio of compound effect for alpha1B adrenergic receptor (unknown origin) to compound effect for alpha1A adrenergic receptor (unknown origin)
Homo sapiens [3] = species: Homo sapiens; assay: Selectivity ratio of compound effect for alpha1B adrenergic receptor (unknown origin) to compound effect for alpha1D adrenergic receptor (unknown origin)
Homo sapiens [4] = species: Homo sapiens; assay: Selectivity ratio of compound effect for alpha1D adrenergic receptor (unknown origin) to compound effect for alpha1A adrenergic receptor (unknown origin)
[5] = target: T2, Alpha-1D adrenergic receptor (Homo sapiens, UniProt P25100); assay: Binding affinity to alpha1D adrenergic receptor (unknown origin)
T2 sequence (P25100 whole entry): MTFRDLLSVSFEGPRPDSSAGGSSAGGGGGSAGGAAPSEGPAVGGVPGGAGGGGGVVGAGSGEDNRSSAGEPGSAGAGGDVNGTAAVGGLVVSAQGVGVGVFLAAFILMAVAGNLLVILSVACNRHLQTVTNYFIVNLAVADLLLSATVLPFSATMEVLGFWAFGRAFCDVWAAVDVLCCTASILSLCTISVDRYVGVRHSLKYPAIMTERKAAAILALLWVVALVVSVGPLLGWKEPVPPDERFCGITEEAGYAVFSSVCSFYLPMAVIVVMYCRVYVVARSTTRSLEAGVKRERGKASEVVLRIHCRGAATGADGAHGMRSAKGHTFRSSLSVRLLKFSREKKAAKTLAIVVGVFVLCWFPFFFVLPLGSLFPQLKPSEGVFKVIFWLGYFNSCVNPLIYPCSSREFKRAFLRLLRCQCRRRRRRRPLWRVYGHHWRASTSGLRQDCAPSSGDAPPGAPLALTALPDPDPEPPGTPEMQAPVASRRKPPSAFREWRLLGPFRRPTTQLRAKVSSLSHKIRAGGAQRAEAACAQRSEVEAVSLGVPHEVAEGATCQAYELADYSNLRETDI

[6] = target: T3, Alpha-1B adrenergic receptor (Homo sapiens, UniProt P35368); assay: Binding affinity to alpha1B adrenergic receptor (unknown origin)
T3 sequence (P35368 whole entry): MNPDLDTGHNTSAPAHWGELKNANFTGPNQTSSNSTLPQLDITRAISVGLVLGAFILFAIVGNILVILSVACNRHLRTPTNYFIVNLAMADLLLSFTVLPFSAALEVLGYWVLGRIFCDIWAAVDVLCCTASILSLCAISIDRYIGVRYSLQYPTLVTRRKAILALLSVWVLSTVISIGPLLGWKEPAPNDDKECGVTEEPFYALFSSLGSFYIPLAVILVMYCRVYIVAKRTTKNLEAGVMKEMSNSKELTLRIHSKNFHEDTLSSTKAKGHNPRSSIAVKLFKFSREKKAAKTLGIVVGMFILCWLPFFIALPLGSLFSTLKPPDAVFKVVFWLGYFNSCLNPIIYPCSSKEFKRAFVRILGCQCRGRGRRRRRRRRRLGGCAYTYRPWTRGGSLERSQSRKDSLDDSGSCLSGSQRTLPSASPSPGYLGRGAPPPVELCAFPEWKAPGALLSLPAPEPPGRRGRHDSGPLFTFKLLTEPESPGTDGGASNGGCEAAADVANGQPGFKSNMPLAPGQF

**Q.** `COc1cc2nc(N3CCN(C(=O)C4COc5ccccc5O4)[C@H]4CCCC[C@H]43)nc(N)c2cc1OC` (single isomer, unassigned; (-)) [CYCLODOXAZOSIN] was tested. Which pKi [1] did it give?
**A.** 8.47

**Q.** What about the Selectivity ratio (Homo sapiens [2]) of the same compound?
**A.** 2

**Q.** And the Selectivity ratio (Homo sapiens [3])?
**A.** 3

**Q.** And the Selectivity ratio (Homo sapiens [4])?
**A.** 1

**Q.** What about the pKi [5] of the same compound?
**A.** 8.41

**Q.** What about the pKi [6] of the same compound?
**A.** 8.85
